Measured values as given in article PMC5824344 (ACS Chemical Biology, 2017).

Experiments:
[1] = target: T1, Rat liver ER α-glucosidase I (Rattus norvegicus, UniProt O88941); assay: Inhibition of isolated rat liver ER α-glucosidase I (anthranilic acid-labelled Glc3Man7GlcNAc2 substrate, HPLC); assay type: biochemical; settings: for IC50: isolated enzyme in vitro, mean of three measurements
T1 construct: Rat liver ER, I; from tissue; host or cells: liver of male Wistar rats
T1 sequence (O88941 1-834): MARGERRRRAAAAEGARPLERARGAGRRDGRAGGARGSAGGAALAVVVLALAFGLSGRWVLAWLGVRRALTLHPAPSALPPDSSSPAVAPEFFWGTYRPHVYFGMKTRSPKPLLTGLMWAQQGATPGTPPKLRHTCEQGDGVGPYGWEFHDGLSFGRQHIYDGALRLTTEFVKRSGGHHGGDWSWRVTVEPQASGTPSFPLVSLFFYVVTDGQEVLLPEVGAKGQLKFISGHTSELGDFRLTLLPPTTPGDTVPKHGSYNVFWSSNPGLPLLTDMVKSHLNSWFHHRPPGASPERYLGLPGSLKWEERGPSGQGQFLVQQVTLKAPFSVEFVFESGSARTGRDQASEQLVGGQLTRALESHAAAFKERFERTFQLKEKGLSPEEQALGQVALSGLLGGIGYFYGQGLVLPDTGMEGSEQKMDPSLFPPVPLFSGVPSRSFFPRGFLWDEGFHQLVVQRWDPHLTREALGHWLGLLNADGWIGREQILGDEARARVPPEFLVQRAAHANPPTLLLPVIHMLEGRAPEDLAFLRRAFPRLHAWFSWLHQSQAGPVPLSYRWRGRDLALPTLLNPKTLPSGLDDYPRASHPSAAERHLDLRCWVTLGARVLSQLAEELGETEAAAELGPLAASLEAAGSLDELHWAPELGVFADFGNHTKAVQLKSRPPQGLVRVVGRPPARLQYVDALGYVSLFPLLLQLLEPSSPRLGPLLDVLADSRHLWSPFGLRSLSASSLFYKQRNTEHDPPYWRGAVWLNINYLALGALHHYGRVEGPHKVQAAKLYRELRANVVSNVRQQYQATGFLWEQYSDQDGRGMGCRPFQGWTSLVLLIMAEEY
Method: (§1) 4 Enzyme Inhibition Assays
(§2) All rat enzymes were isolated from 18-week-old, male Wistar rats, while human lysosomal α-glucosidase was obtained in commercially available form from Sanoﬁ Genzyme. Inhibition of isolated glucosidases was evaluated as described previously. 3 Brieﬂy, maltase, isomaltase, sucrase, and cellobiase were used as partially puriﬁed tissue extracts. Inhibition assays for each enzyme were performed with the respective natural substrate, and release of d-glucose measured by Glucose B-test (Wako Diagnostics). Assays of rat ER α-glucosidase II and human lysosomal α-glucosidase inhibition were conducted with α-p-nitrophenylglucoside as substrate; 400 mm Na2CO3 was added to quench these reactions, and the extent of hydrolysis was evaluated as absorbance at 400 nm by spectrophotometer.
(§3) ER α-glucosidase I inhibition assays were performed using anthranilic acid-labelled Glc3Man7GlcNAc2 as substrate. After terminating the reaction with acetonitrile, protein was removed by cen-trifugation through a 10 kDa molecular weight cut oﬀ ﬁlter. The amount of hydrolysis was then quantiﬁed by normal phase high performance liquid chromatography analysis of unreacted substrate and product (Glc2Man7GlcNAc2).4
(§4) ER α-glucosidase II inhibition assays using native-like substrates were performed using an-thranilic acid-labelled Glc2Man7GlcNAc2 as substrate. After terminating the reaction with acetonitrile, protein was removed by centrifugation through a 10 kDa molecular weight cut oﬀ ﬁlter. The amount of hydrolysis was then quantiﬁed by normal phase high performance liq-uid chromatography analysis of unreacted substrate and both products (Glc1Man7GlcNAc2

[2] = target: T2, Rat intestinal isomaltase (Rattus norvegicus, UniProt P23739); assay: Inhibition of rat intestinal isomaltase (natural substrate, glucose release); assay type: biochemical; settings: for IC50: isolated enzyme in vitro, mean of three measurements, read-out: IC50, α-Glucosidase, Rat intestinal isomaltase
T2 construct: from tissue; host or cells: intestine of male Wistar rats, partially purified extract
Method: as §1, §2, §3, §4

T2 sequence (P23739 whole entry): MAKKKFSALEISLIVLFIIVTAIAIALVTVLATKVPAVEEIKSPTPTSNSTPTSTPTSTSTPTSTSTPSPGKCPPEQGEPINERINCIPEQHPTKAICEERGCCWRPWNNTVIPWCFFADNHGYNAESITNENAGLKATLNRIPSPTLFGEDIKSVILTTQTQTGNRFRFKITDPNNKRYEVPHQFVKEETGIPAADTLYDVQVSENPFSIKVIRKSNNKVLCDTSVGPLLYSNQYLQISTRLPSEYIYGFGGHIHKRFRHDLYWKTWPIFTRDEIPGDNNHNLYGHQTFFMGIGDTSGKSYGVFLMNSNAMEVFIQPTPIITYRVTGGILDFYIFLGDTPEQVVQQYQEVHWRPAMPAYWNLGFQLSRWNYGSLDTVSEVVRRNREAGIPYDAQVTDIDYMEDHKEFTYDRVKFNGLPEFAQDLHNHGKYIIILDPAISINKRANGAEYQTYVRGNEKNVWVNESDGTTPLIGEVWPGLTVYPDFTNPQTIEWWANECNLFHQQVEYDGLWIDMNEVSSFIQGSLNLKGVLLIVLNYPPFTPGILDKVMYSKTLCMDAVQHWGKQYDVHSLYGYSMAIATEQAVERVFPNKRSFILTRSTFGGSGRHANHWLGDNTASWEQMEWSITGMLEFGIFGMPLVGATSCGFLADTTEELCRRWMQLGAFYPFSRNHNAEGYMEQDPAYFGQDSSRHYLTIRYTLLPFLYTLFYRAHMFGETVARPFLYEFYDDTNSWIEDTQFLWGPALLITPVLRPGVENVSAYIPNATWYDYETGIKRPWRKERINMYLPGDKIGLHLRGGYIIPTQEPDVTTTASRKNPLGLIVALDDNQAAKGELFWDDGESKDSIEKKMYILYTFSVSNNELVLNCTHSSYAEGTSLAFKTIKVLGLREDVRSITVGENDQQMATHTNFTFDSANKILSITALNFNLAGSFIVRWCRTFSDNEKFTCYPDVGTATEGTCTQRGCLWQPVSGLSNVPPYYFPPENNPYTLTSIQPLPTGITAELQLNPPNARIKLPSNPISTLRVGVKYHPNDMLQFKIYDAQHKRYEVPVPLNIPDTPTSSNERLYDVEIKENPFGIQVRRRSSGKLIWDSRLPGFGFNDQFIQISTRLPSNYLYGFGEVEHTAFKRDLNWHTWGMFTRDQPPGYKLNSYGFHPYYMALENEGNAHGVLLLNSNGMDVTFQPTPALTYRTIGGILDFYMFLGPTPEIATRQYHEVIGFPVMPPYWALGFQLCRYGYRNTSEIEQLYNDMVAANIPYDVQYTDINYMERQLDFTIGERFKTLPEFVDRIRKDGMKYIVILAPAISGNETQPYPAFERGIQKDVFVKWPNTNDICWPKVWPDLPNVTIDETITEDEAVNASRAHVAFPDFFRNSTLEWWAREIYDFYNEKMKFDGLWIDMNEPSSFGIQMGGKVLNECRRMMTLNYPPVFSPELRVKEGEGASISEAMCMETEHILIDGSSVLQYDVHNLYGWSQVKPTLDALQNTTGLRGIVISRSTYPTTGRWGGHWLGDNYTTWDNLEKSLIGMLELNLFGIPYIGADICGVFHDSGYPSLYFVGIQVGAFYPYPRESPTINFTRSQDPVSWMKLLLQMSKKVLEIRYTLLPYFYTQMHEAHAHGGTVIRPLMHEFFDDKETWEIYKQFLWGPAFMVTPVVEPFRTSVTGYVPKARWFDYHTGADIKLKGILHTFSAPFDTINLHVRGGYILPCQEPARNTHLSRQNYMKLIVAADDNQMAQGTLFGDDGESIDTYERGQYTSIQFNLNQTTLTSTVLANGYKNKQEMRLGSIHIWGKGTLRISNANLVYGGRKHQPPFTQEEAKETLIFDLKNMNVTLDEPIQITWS

| Structure (SMILES) | IC50 [1] | IC50 [2] | inhibition at 50 µM ([1]; 50 μM, read-out: inhibition of GluI at the maximum tested concentration) | inhibition at 50 µM ([2]; 50 μM, read-out: inhibition of intestinal isomaltase at the maximum tested concentration) |
| --- | --- | --- | --- | --- |
| CCCCN1CC(O)C(O)C(O)C1CO [Compound 2, N-butyl-D-1-deoxynojirimycin, reference compound] | 0.68 µM | 1.6 µM | – | – |
| Cc1c(C)c2c(c(C)c1OCCCCCN1CC(O)C(O)C(O)C1CO)CCC(C)(CCCC(C)CCCC(C)CCCC(C)C)O2 (stereo not drawn) [Compound 4, 5′-tocopheroxypentyl-DNJ] | > 50 µM | > 50 µM | < 50% | < 50% |
